Patent publication US9284310B2, “Inhibitors of cytomegalovirus” (Boehringer Ingelheim International GmbH, priority 2012, dated 2016)

Assays:
HCMV AD169 virus [1] = experiment: HCMV AD169 CPE Assay (Example A); assay type: cell-based; settings: Human betaherpesvirus 5, AD169, MRC5, 216 h, MRC-5 cells, 9 days, MTS readout
Protocol: This assay format is a CPE (Cytopathic effect)-based assay that determines the ability of compounds to protect cells against infection with a dye reduction assay (MTS of CellTiter 96® AQueous Non-Radioactive Cell Proliferation Assay from Promega). The conversion of MTS into aqueous, soluble formazan is performed by dehydrogenase enzymes found in metabolically active cells. The quantity of formazan product determined by absorbance at 490 nm is directly proportional to the number of living cells in culture.
(§1) Serial dilutions of the DMSO stock compound solution are performed using DMSO in columns 2-11 and 14-23. DMSO alone is present in columns 1, 12, 13 and 24. Four μL of the DMSO serial dilutions is obtained and diluted using […] of D-MEM 5% FBS culture medium to obtain 4% DMSO (7×).
To perform the assay, 10 µL of the freshly prepared 4% DMSO serial dilution plate is added to the assay plate containing 40 μL of MRC-5 cells plated the day before (10000 cells per well). Twenty μL of diluted virus is added to columns 2-12 and 14-24 and only D-MEM 5% FBS medium to uninfected control (columns 1 and 13) for a final DMSO concentration of 0.6%.
The virus dilution is based on the amount of virus required to obtain a Signal-to-Background of 3-4 (generally between 0.1 and 1 μL of virus stock per well or MOI=0.05). The assay plates are incubated at 37° C. with 5% CO2 for 9 days in order to obtain 100% CPE in infected control without compound (columns 12 and 24). Ten μL of freshly mixed room temperature MTS/PMS (1:20 v/v) is added and the plates are incubated at 37° C. with 5% CO2 for 4-5 h (until signal saturation at 2.3 in the 100% CPE control). The plates are sealed with TopSeal for biosafety and read on the Envision plate reader (Perkin-Elmer) or equivalent at OD 492 nm.

[2] = test system: HCMV AD169-Bac-Luc2 US2-US6 clone #26 virus; experiment: HCMV AD169-Bac Luciferase Assay (Example B); assay type: cell-based, Human Cytomegalovirus; settings: Human betaherpesvirus 5, AD169, MRC5, 72 h, read-out: EC50 Example B
From the text: This assay format is a luciferase reporter-based assay that determines the ability of compounds to inhibit the infection by detecting a luciferase signal decrease following the addition of BIGlo substrate (preparation indicated below) directly in the culture media. Mono-oxygenation of luciferin is catalyzed by luciferase in the presence of Mg2+, ATP and molecular oxygen. The generation of oxyluciferin is a luminescent reaction that can be detected with the proper platereader. Human Cytomegalovirus AD169-Bac is obtained from Dr. Thomas Shenk at Princeton University (reference paper Yu et al. 2002—J. Virol. 76 (5):2316-2328, herein incorpoarated by reference) and modified by recombineering to introduce a humanized firefly luciferase gene (Luc2) at the US2-US6 position in the HCMV genome. The virus is expanded in MRC-5 cells.
as §1
To perform the assay, 7 μL of the freshly prepared 4% DMSO serial dilution plate is added to the assay plate containing […] of MRC-5 cells plated the day before (10000 cells per well). Seventeen μL of diluted virus is added to columns 2-12 and 14-24 and only D-MEM 5% FBS medium to uninfected control (columns 1 and 13) for a final DMSO concentration of 0.6%. The virus dilution is based on the amount of virus required to obtain the highest luciferase signal possible without CPE (generally between 0.05 and 1 μL of virus stock per well or MOI=0.02). The assay plates are incubated at 37° C. with 5% CO2 for 3 days. Fifteen μL of room temperature BIGlo buffer is added to room temperature assay plates also incubated at room temperature for 15 minutes. The plates are sealed with TopSeal for biosafety and the luminescence signal is read on the TopCount plate reader (Perkin-Elmer) or equivalent.

HCMV AD169 virus [3] = experiment: HCMV AD169 qPCR 96-Well Assay (Example C); assay type: cell-based; settings: Human betaherpesvirus 5, AD169, MRC5, 72 h; qPCR of viral DNA, MRC-5 cells, 3 days
Protocol: The hCMV quantitative PCR (qPCR) assay evaluates the ability of a compound to inhibit, directly or indirectly, the replication of hCMV viral DNA during the first 72 h following the infection. Compounds that inhibit either entry or the hCMV polymerase are active in this assay. Compounds are tested in the qPCR assay in 96-well plates, using a 9-point dose-response with 8 compounds for each 96-well plate. The assay was adapted from the method described by Schnepf et al., Rapid determination of antiviral drug susceptibility of human cytomegalovirus by real-time PCR, Antiviral Research 81 (2009) 64-67.
Final Concentrations: • 10 mM Tris-HCl pH8.0 • 50 mM KCl • 2 mM MgCl2 • 0.45% Tween20 • 0.45% Nonidet P40
Serial dilutions of the DMSO stock compound solution are performed using DMSO in columns 2-10. DMSO alone is present in columns 1 and 11. Column 12 remains empty. Diluted compounds are further diluted with DMEM 5% FBS cell culture medium.
To perform the assay, 25 μL of inhibitor dilutions freshly prepared is added to the assay plate containing 50 μL of MRC-5 cells plated the day before (30000 cells per well). In a 9 point dose-response, column 1 contains mock infected cells and serves at negative control, with the appropriate concentration of DMSO, columns 2 to 10 contain compound dilutions and column 11 contains infected cells, with the appropriate concentration of DMSO and serves as the positive control. Column 12 serves for the standard curve in the qPCR process. Twenty-five μL of virus diluted in DMEM 5% FBS medium (to infect at MOI=0.05) is added to columns 2-11 and only D-MEM 5% FBS medium to uninfected control (column 1) for a final DMSO concentration of 0.6%. Incubate plates at 37° C. in 5% CO2 incubator for 3 days. Whole cell lysates are then obtained by adding 100 μL of Cell lysis buffer to each well including freshly added Proteinase K at a ratio of 1:5 (i.e. 200 μL Proteinase K:1000 μL Cell Lysis buffer) and incubating the assay plate at 56° C. for 1 h. Plates are centrifuged at 1300 rpm for 2 minutes to remove any condensation before proceeding with the qPCR.
The cell lysate is carefully pipetted up and down to mix well and diluted 1:40 in H2O to give a final dilution of 1:80 relative to the 100 μL of lysis buffer that Is added to the cells. 5 μL of diluted lysate is used for the qPCR reaction. An incubation of 5 minutes at 95° C. in a PCR machine is required to inactivate the Proteinase K. The cell lysates can be stored at −20° C. or used to perform qPCR immediately.
A 81 bp fragment of US17 gene from AD169 is amplified by PCR using primers qHCMV7 and qHCMV8. The PCR product is cloned into pCR4 TOPO vector (Invitrogen) and a clone harboring the insert is selected. A mitochondrial DNA is also added to normalize the HCMV copy number. Serial dilutions of the US17 plasmid and mitochondrial DNA are performed in heat-inactivated lysis buffer at the same dilution as the cell lysates (1:80). Usually, a standard curve ranging from 10E6 to 10E2 copies (per well) is suitable.
A typical qPCR reaction consists of the following:
A qPCR cycle consists of an initial denaturation of DNA and activation of the Taq enzyme at 95° C. for 10 min followed by 45 cycles of 15 seconds at 95° C. and 1 min at 60° C. Fluorescence is measured at each cycle, following the elongation step at 60° C. The reaction, data acquisition and analysis are performed using AppliedBiosystems 7500 Real time PCR system or other suitable real-time PCR system.

Structure (SMILES) | EC50 (HCMV AD169 virus [1]) [nM] | EC50 [2] [nM] | EC50 (HCMV AD169 virus [3]) [nM]
O=C(Nc1ccc(-c2cnc(NC(=O)C3(c4cccc(Cl)c4)CCC3)[nH]2)cc1)c1cscn1 [Compound 1004] | 98 | 7 | 
O=C(Nc1ccc(-c2cnc(-c3cc(C(F)(F)F)cc(C(F)(F)F)c3)[nH]2)cc1)c1cscn1 [Compound 1016] | 135 | 35 | 
O=C(Nc1ccc(-c2cnc(-c3cccc(C(F)(F)F)c3)[nH]2)cc1)c1cscn1 [Compound 1018] | 380 | 100 | 270
O=C(Nc1ccc(-c2nc(-c3cccc(C(F)(F)F)c3)nn2CCCO)cc1)c1cscn1 [Compound 1034] | 275 | 59 | 
O=C(Nc1ccc(-c2cccc(-c3cccc(Cl)c3)n2)cc1)c1cocn1 [Compound 1038] | 3100 | 1190 | 
O=C(O)CCn1nc(-c2cccc(Cl)c2)nc1-c1ccc(NC(=O)c2cscn2)cc1 [Compound 1041] | 4100 | 645 | 
O=C(Nc1ccc(-c2ncc(-c3cccc(Cl)c3)[nH]2)cc1)c1cscn1 [Compound 1045] | 345 | 66 | 
O=C(Nc1ccc(-c2ncc(-c3cccc(Cl)c3)[nH]2)cn1)c1cscn1 [Compound 1059] |  | 425 | 
Cc1cccc(-c2nnc(-c3ccc(NC(=O)c4cscn4)cc3)[nH]2)c1 [Compound 1070] | 510 | 93 | 
O=C(Nc1ccc(-c2nc(-c3cccc(C(F)(F)F)c3)nn2CCCN2CCOCC2)cc1)c1cscn1 [Compound 1077] | 903 | 180 | 
CC(c1cccc(Cl)c1)c1ncc(-c2ccc(NC(=O)c3cscn3)cc2)[nH]1 (centres unmarked) [Compound 1086] | 355 | 118 | 
CC(c1cccc(C(F)(F)F)c1)c1nc(-c2ccc(NC(=O)c3cscn3)cn2)c[nH]1 (centres unmarked) [Compound 1087] |  | 87 | 
CC(O)(c1cccc(C(F)(F)F)c1)c1nc(-c2ccc(NC(=O)c3cscn3)cn2)c[nH]1 (centres unmarked) [Compound 1092] |  | 203 | 620
Cn1c(-c2ccc(NC(=O)c3cscn3)cc2)cnc1-c1cccc(C(F)(F)F)c1 [Compound 1096] |  | 665 | 
Cn1cc(-c2cccc(C(F)(F)F)c2)nc1-c1ccc(NC(=O)c2cscn2)cc1 [Compound 1097] | 280 | 60 | 
C#CCn1cc(-c2ccc(NC(=O)c3cscn3)cc2)nc1-c1cccc(C(F)(F)F)c1 [Compound 1098] |  | 100 | 
